# According to US11351218B2, “Composition for preventing or treating glioblastoma comprising Platycodon grandiflorum A. De Candolle, Scutellaria baicalensis, Phellodendron amurense Ruprecht or Rubus coreanus” (University-Industry Cooperation Group of Kyung Hee …, priority 2019, dated 2022):
# Residues, ends and D or L forms follow the SMILES beside them. *: point of attachment. Cbz = O=C(OCc1ccccc1)*; CH2F = FC*
# Experiments:
# [1] = test system: Ax1; assay: Western blot of Ax1 expression after natural compounds, U87MG and U373MG cells; format: cell-based, human; conditions: varying concentrations, 48 hours
# Method: Cells were washed with PBS and dissolved using a RIPA buffer (150 mM NaCl, 1% NP-40, 0.5% DOC, 0.1% SDS, 50 mM Tris (pH 8.0), 1 mM EDTA, 1 mM PMSF, 1 mM NaF, 1 mM Na3PO4, 1 μL aprotinin, leupeptin, and pepstatin), and proteins were isolated by centrifugation at 3,000× g for 20 minutes. An equal amount (20 μg) of each of the proteins was separated by 10% sodium dodecyl sulfate-polyacrylamide gel electrophoresis (SDS-PAGE) and the proteins separated using the Trans-blot unit were transferred to a nitrocellulose (NC) membrane. The membrane to which proteins were transferred was blocked with 5% non-fat dry milk (Tris buffered saline (TBS-T) containing 0.1% Tween-20) at room temperature for 1 hour, and primary antibodies, which were diluted at a 1:1,000 concentration, were allowed to react the proteins at 4° C. for 16 hours. After washing with PBS, the resultant was allowed to react with secondary antibodies, which were diluted at a 1:5,000 concentration, at room temperature for 1 hour. A Pierce ECL Western Blotting Substrate, which also underwent a washing process, was coated onto the membrane and allowed to react in a dark room with a film, and thereby, specific protein bands were confirmed. […]
# [2] = test system: U87MG and U373MG cells; assay: Cholesterol cell-based detection assay (filipin III staining) in GBM cells; design: species or system human
# Method: (§1) FIGS. 15A and 15B show the results that PD promotes accumulation of cholesterol in lysosomes. Cells were treated with DMSO, PD (10 μM), or U18666a (1 μM) for 24 hours. […] Total cholesterol levels are expressed in cholesterol (μg) per protein (mg) of cell lysate and are shown as means±SD from two independent experiments.
# Cells grown on coverslips were treated with the materials. Then, the cells were fixed with 4% PFA at room temperature for 10 minutes. The solution of Filipin III (Cayman) was added for staining of […] cholesterol and the samples were incubated in a dark room for 30 minutes. The images were examined under a Zeiss laser confocal microscope.
# The present inventors concluded that PD inhibits the maturation of autophagosome into autolysosomes by inhibiting lysosomal degradation and an autophagosome-lysosome fusion in GBM cells. […] To examine whether the defect in the autophagosome-lysosome fusion by PD is due to altered intracellular cholesterol levels, the PD-treated GBM cells were stained with filipin-III, which is a fluorescent dye that binds to cholesterol. […] As can be confirmed in FIG. 14A, this filipin-III staining pattern is very similar to that found in GBM cells treated with U18666A, implying that PD blocks cholesterol release from lysosome and accumulates cholesterol in lysosomes.
# [3] = test system: U87MG and U373MG cells; assay: Cholesterol measurement (total cholesterol assay kit) in GBM cells; format: cell-based, human; conditions: PD 10 μM or U18666a 1 μM, 24 hours
# Method: as §1
# Cells treated as described above were processed using a total cholesterol assay kit (STA384, Cell Biolabs) according to the manufacterer's instructions. Cholesterol esters and free cholesterol were quantified by homogenizing 10^6 cells extracted from a 200 μL mixture of chloroform: isopropanol: NP-40 (7:11:0.1). After centrifugation of the extract at 15,000× g for 10 minutes, the organic phase was collected and evaporated at 50° C. The extract was resuspended in 200 μL of a 1× cholesterol assay diluent prior to analysis. The colorimetric signal was analyzed using an ELISA reader (Versa Max, Molecular Devices, Sunnyvale, Calif., USA) at 540 nm. Cellular cholesterol results were reported as μg of cholesterol per mg of cell protein.
# [4] = test system: LDLR; assay: Immunoblot of LDLR in U87MG, U373MG cells and normal astrocytes; format: cell-based, human; conditions: PD 5 μM and 10 μM or U18666a 1 μM, 24 hours; U87MG, U373MG and normal astrocytes
# Method: (§2) FIGS. 16A to 16D show the results that PD increases the expression of LDLR on cell surfaces in GBM cells. […] GAPDH was used as a loading control. […] GAPDH was used as a loading control.
# (§3) Cells treated with the concentrations and materials described in FIGS. 1-3B, 7, 8, 10, 13, 16, 18, and 20 were lysed in buffer containing 20 mM Tris-HCl (pH 7.5), 150 mM NaCl, 1 mM EDTA, 1 mM Na2EDTA, 1 mM EGTA, 1% NP-40, 1% sodium deoxycholate, 1 mM Na3VO4, 1 mM MPI, 1 mM PMSF, and PI cocktails for 15 to 20 minutes on ice. Cell lysates were separated by SDS-PAGE and transferred to nitrocellulose membranes. Immunodetection was performed with the following primary antibodies: rabbit anti-LC3B, rabbit anti-cathepsin B, rabbit-anti GAPDH (Cell Signaling Technology, Danvers, Mass.), mouse anti-SQSTM1/p62, and goat anti-cathepsin D (Santa CruzKPL, Gaithersburg, Md., USA) were incubated at room temperature for 1 hour. The protein bands were detected with ECL western Blotting Substrate (Thermo Fisher Scientific, Waltham, Mass., USA).
# (§4) Brain is the most cholesterol-rich organ of the body, containing about 20% of total body cholesterol. […] As can be confirmed in FIG. 16A, in consistent with these reports, the LDLR protein level was markedly elevated in U87MG and U373MG cells relative to normal human astrocytes. […] Then, the cell surface expression of LDLR was confirmed by flow cytometry.
# [5] = test system: cell-surface LDLR; assay: Cell surface LDLR analysis by flow cytometry, GBM cells; format: cell-based, human; conditions: PD 10 μM or U18666a 1 μM, 24 hours
# Method: as §2
# (§5) Cells treated as described in FIG. 16 were separated from plates and resuspended in PBS. After washing with 1% BSA in PBS, the cells were incubated with a primary antibody against human LDLR (Abcam) for 30 minutes. Then, the cells were washed before incubation with an Alexa-Fluor 488-conjugated secondary antibody (Invitrogen) for 30 minutes. The stained cells were washed and resuspended. Fluorescence was analyzed by a FACScalibur flow cytometer (Becton Dickinson, San Jose, Calif., USA) using CellQuest™ software.
# as §4
# [6] = test system: cell-surface LDLR; assay: Cell surface LDLR analysis by flow cytometry, normal astrocytes; format: cell-based, human; conditions: PD 10 μM or U18666a 1 μM, 24 hours
# Method: as §2, §5, §4
# [7] = test system: U87MG and U373MG cells; assay: BODIPY FL LDL uptake assay, GBM cells; format: cell-based, human; conditions: U18 1 μM 24 hours, BODIPY FL LDL 1 hour
# Method: (§6) Cells were treated with DMSO, PD (10 μM), or U18 (1 μM) for 24 hours and subsequently loaded with BODIPY™ FL LDL. BODIPY-LDL uptake was visualized by confocal microscopy. Nuclei were stained with DAPI (blue). Quantification shown on the right graph represents a relative fold change from three independent experiments±SD.
# (§7) Cells seeded on coverslips were treated with the materials and then the culture medium was replaced with BODIPY™ FL LDL (Thermo Fisher Scientific) at a working concentration of 5 μg/mL in a medium. The cells were additionally incubated at 37° C. for 1 hour. The degree of LDL uptake was measured using a Zeiss laser confocal microscope.
# (§8) Based on the previous study results of the present inventors that PD increases cell surface LDLR expression and accumulate cholesterol within lysosomes, whether PD can increase the uptake of exogenous LDL was examined Cells pretreated with PD or U18666A were incubated with BODIPY FL-labeled LDL particles for 1 hour and the LDL uptake was observed by a confocal microscope. Upon analysis of these cells, it was observed that PD caused about a 6-fold increase in LDL uptake and it was a level similar to that detected in the U18666A-treated cells.
# [8] = test system: normal astrocytes; assay: BODIPY FL LDL uptake assay, normal astrocytes; format: cell-based, human; conditions: PD 10 μM or U18 1 μM, 24 hours
# Method: as §6, §7, §8
# [9] = test system: U87MG and U373MG cells; assay: WST1 cell viability assay, GBM cells; format: cell-based, human
# Method: FIGS. 6A and 6B show the results that PD induces a decrease in cell viability and vacuole formation. […] Data shown represent the means of quintuplicate measurements which were repeated three times. The results are presented as a percentage of control (means±SD).
# Cell cytotoxicity was assessed by WST1 assay. U87 and U373 cells were each seeded in a 96-well plate (5×10^3 cells/well) and treated with different concentrations of platycodin D (PD). Then, cells were incubated with a WST1 reagent (Dogen, Seoul, Korea) for 2 hours before reading the plate. Absorbance was measured at 450 nm using an ELISA reader (Versa Max, Molecular Devices, Sunnyvale, Calif., USA).
# [10] = test system: LC3B and SQSTM1/p62; assay: Immunoblot of LC3B and SQSTM1/p62 in GBM cells (U87MG and U373MG); format: cell-based, human; conditions: combined treatment MβCD 100 μM and PD 10 μM
# Method: FIGS. 2A and 2B show the results that an extract of Platycodon grandiflorum (PG) increases the levels of LC3-II and p62. […] GAPDH was used as a loading control.
# FIGS. 3A to 3C show the results that PD inhibits autophagic flux in GBM cells. […] The expression of LC3B and SQSTM1 was confirmed by immunoblot analysis. […] GAPDH was used as a loading control.
# The human glioma cell lines, U87MG and U373MG, were cultured respectively in RPMI-1640 (Welgene) and DMEM (Welgene, Daegu, Korea) supplemented with 10% fetal bovine serum (FBS, JR Scientific) and 1% antibiotics (Ab, Welgene). All cultures were maintained at 37° C. in a humidified incubator containing 5% CO2.
# as §3
# [11] = test system: U87MG and U373MG cells; assay: LysoTracker assay with GFP-LC3B (autophagosome-lysosome fusion) in GBM cells; format: cell-based, human; conditions: co-treatment MβCD 100 μM and PD 10 μM, 48 hours
# Text: […] Then, cells were stained with LysoTracker (red) and DAPI (blue). The merged images show an overlap between GFP-LC3 and LysoTracker (yellow). The panels on the right are higher-magnification images of the boxed regions.
# Cultured cells seeded in plates with microscope coverslips were transfected with a pGFP-LC3B plasmid using Lipofectamine 3000 (Thermo Fisher Scientific) according to the manufacturer's instructions. After the transfection, the cells were fixed with 4% paraformaldehyde (PFA) in phosphate-buffered saline (PBS) at room temperature for 10 minutes. The images were examined under a laser confocal microscope (Zeiss, Oberkochen, Baden-Wurttemberg, Germany).
# To stain acidic compartments, 50 nM LysoTrackerRedDND-99 (Thermo Fisher Scientific) was added to a medium at 37° C. with 5% CO2 for 30 minutes prior to fixation. The nuclei were labeled with 4,6-diamidino-2-phenylindole (DAPI, Sigma). The slides were finally mounted using a Faramount mounting medium (Dako, Glostrup, Denmark). The images were examined under a Zeiss laser confocal microscope.
# Experimental Result 11. PD Blocks Fusion of Autophagosomes with Lysosomes. Since p62 was accumulated in autophagosomes by PD treatment, it was speculated that PD may cause the lysosomal dysfunction like bafilomycin A1, which inhibits vacuolar H^+-ATPase (V-ATPase)-dependent lysosomal acidification and blocks autophagosome-lysosome fusion. Thus, the PD-treated cells with LysoTracker Red, which is a marker for acidic compartment including lysosomes was stained to examine the colocalization of GFP-LC3B.
# [12] = test system: cathepsin B and D; assay: Immunoblot of cathepsin B and D processing in GBM cells; format: cell-based, human; conditions: addition of MβCD 100 μM to PD 10 μM-treated cells
# Method: Immunoblot analyses for the processing of endogenous CTSB and CTSD are shown (upper, immature form/lower, mature form of CTSB and CTSD). GAPDH was used as a loading control.
# as §3
# To confirm whether PD functions as an autophagy inhibitor, the effects of PD on lysosomal proteases, cathepsin B and D, were examined Autophagy is a lysosome-mediated and self-degradative process that requires lysosomal cysteine proteases known as cathepsins. Since pro-cathepsins are cleaved into a mature form in lysosomes, the 33 kD active cleaved form of cathepsins has been commonly used as a marker for lysosomal activity. As can be confirmed in FIG. 13, while the mature forms of cathepsin B and D proteins were decreased, immature forms of those protein were increased after PD treatment in U87MG and U373MG cells, implying that PD suppresses a lysosomal function by downregulating the lysosomal proteolytic activity.
# [13] = test system: U87MG and U373MG cells; assay: Clonogenic assay, GBM cells; format: cell-based, human; conditions: co-treatment MβCD 100 μM with PD 10 μM or 20 μM, 7 days
# Method: FIGS. 19A and 19B show the results that MβCD restores PD-mediated decrease in cell viability. […] Data shown represent the means of quintuplicate measurements which were repeated three times. The results are presented as a percentage of control (means±SD).
# Approximately 2×10^3 cells were seeded into each 6-well plate and then treated as described in FIG. 19. After 7 days, the cells were washed with PBS and stained with 0.5% crystal violet.
# Furthermore, as can be confirmed in FIG. 19B, a colony formation assay was performed to confirm the effects of MβCD on PD-mediated GBM cell death.
compound,measurement,setting,value
O=c1c(O)c(-c2ccc(O)c(O)c2)oc2cc(O)cc(O)c12 [quercetin],expression of Ax1,[1],reduced the expression of Ax1
"CCN(CC)CCO[C@H]1CC[C@@]2(C)C(=CC[C@@H]3[C@@H]2CC[C@]2(C)C(=O)CC[C@@H]32)C1 [U18666A, reference compound]",cellular cholesterol distribution (filipin-III staining),"[2]; PD 10 μM or U18666a 1 μM, 24 hours",very similar
same,free cholesterol levels,[3],significant increase
same,LDLR expression,[4],increased the LDLR expression
same,cell surface expression of LDLR,[5],shift of the FL-1 histogram peak toward right
same,changes in peak shift (cell surface LDLR),[6],very negligible
same,LDL uptake level compared with PD,[7],similar
same,LDL uptake,[8],less effective
"COC(=O)C[C@H](NC(=O)[C@H](C)NC(=O)[C@@H](NC(=O)OCc1ccccc1)C(C)C)C(=O)CF [z-VAD-fmk, reference compound] (Cbz-Val-Ala-Asp(OMe)-CH2F)","cell viability, co-treatment vs PD-alone","[9]; z-VAD-fmk 50 μM with PD 10 μM and 20 μM, 48 hours",little impact
"methyl β-cyclodextrin [MβCD, reference compound]",changes in LC3-II and p62 levels increased by PD alone,[10],almost completely restored
same,viability of GBM cells,"[9]; combined treatment MβCD 100 μM and PD 10 μM, 72 hours",significantly restored the viability
same,colocalization of GFP-LC3B puncta with LysoTracker Red fluorescence,[11],remarkable increase
same,activity of cathepsin B,[12],recovered activity
same,accumulated cholesterol in lysosomes,"[2]; PD 10 μM 24 hours, then MβCD 100 μM 48 hours",successfully depleted
same,colony-forming ability,[13],almost completely recovered
O=C(O)[C@H]1O[C@@H](Oc2cc3oc(-c4ccccc4)cc(=O)c3c(O)c2O)[C@H](O)[C@@H](O)[C@@H]1O [baicalin],expression of Ax1,[1],reduced the expression of Ax1
